Like-named read-outs stand apart in the source and are kept apart here.
Columns and labels:
[1] = Molar absorptivity at 480 nm in borate buffer pH 9; assay type: physicochemical; conditions: borate buffer pH 9, five repetitions; in M-1·cm-1 (unit assumed)
Procedure: The molar absorptivity was determined in borate buffer solutions at pH 9 (five repetitions). To define the exact complex concentration an understoichiometric amount of ferric iron was used and the excess of free ligand was tolerated, as the ligand is not electroactive.

[2] = Diffusion coefficients of ferric complexes from voltammetry; assay type: physicochemical; conditions: pH 9, borate buffer, this work
Procedure: The experiments also permit calculation of the diffusion coefficients (five solutions in the concentration range between 0.3 and 0.8 mM) (Table 3). Literature values for the Fe^3+ diffusion coefficient range from 3.3-6.5×10^−6 cm^2/s in acidic media to 8.6×10^−6 cm^2/s complexed as K3Fe(CN)6 in strongly basic media.

[3] = literature (Yunta et al. 2003); in M-1·cm-1 (unit assumed); cited from earlier work
[4] = Cyclic voltammetry in borate buffer at Hg/Cu/GC electrodes; conditions: for E1/2 / ipa/ipc / jpc (peak current density) / ΔEp: 0.5 mM, 50 mM borate buffer pH 9, 0.1M NaClO4
Procedure: (§1) A Pt rod served as counter electrode, potentials refer to a (Ag/AgCl, 1 M NaCl) reference electrode. For each CV experiment at the mercury electrode, nine single measurements were recorded and averaged in order to minimize errors originating from drop size fluctuations. Copper electrodes were precleaned with 6 M HNO3 before use and equilibrated in electrolyte solution by running repetitive cycles. The planar glassy carbon electrode (Metrohm, 5 mm diameter) was polished on a polishing micro cloth (Buehler) with 0.05 μM alumina (Buehler) to a mirror like finish between the measurement series.
To avoid disturbing influences of local changes in pH within the diffusion layer of the electrodes, cyclic voltammetry with use of buffered solutions was performed.
A 100 mM NaClO4 background supporting electrolyte was used to maintain diffusion limited conditions and high solution conductivity. 50 mM boric acid was added to the NaClO4 supporting electrolyte and adjusted with NaOH to the desired pH value.

[5] = Cyclic voltammetry of Fe-EDDHA complexes in unbuffered 0.1 M NaClO4
Procedure: In order to minimize undesired ligand exchange reactions and solely observe the effect of pH on the redox properties, 0.1 M NaClO4 was chosen as electrolyte for the first set of experiments.
as §1

[6] = cited from earlier work
[7] = 0.5 mM, unbuffered 0.1M NaClO4, pH 9, Hg electrode
[8] = 0.5 mM, unbuffered 0.1M NaClO4, pH 9, Hg electrode, vs Ag/AgCl 1 M NaCl

In the case of `O=C([O-])C(NCCNC(C(=O)[O-])c1ccccc1[O-])c1ccccc1[O-].[Fe+3]` (stereo not shown) [Fe-mesoEDDHA], the “Molar absorptivity (ε480 nm), this work” value [1] is listed as 4546 ± 120, the “Diffusion coefficient Do” value [2] is listed as 5.78 10^−6 cm^2/s and the “Molar absorptivity (ε480 nm), lit.” value [3] is listed as 4574 ± 53. The E1/2 ([4]; Cu electrode) was −619 mV, the ipa/ipc ([4]; Cu electrode) was 1.06 and the “jpc (peak current density)” value ([4]; Cu electrode) was 520 nA/mm^2. For the same compound, the ΔEp ([4]; Cu electrode) was 132 mV, the E1/2 ([4]; GC electrode) was −616 mV and the ipa/ipc ([4]; GC electrode) was 0.94 1. The “jpc (peak current density)” value ([4]; GC electrode) was 817 nA/mm^2, the ΔEp ([4]; GC electrode) was 67 mV and the E1/2 ([4]; Hg electrode) was −615 mV. The ipa/ipc ([4]; Hg electrode) was 0.93 1, the “jpc (peak current density)” value ([4]; Hg electrode) was 1167 nA/mm^2 and the ΔEp ([4]; Hg electrode) was 64 mV. For the same compound, the “slope of E1/2 vs pH” value ([4]; borate buffered solution, below pH 8 (racemic) / below pH 9 (meso)) was −38 mV/pH, the redox potential ([4]; pH 9, vs Ag/AgCl 1 M NaCl reference electrode) was −615 mV and the ipa [5, 7] was 255 nA. It also gave an ipa/ipc [5, 7] of 0.93, an ipc [5, 7] of −275 nA and a ΔEP [5, 7] of 72 mV. The E1/2 [5, 8] was −621 mV, the Epa [5, 8] was −585 mV and the Epc [5, 8] was −657 mV. The “pH range in which the voltammograms were independent on pH” value ([5]; unbuffered 0.1 M NaClO4) was 6-9 and the “pH above which the complex hydrolyses” value ([5]; without buffer) was greater than 9.
For `[Fe+3]` [Fe^3+], the “Diffusion coefficient, literature values” ([6]; acidic media) is given as 3.3-6.5 ×10^−6 cm^2/s and the “Diffusion coefficient Do” value ([6]; pH 0-1, source a (literature)) is given as 3.3-6.5 10^−6 cm^2/s.

Source: patent US12489120B2, “Redox flow battery” (ELECTROCHEM, S.L., priority 2019, dated 2025)
